These results are taken from ChEMBL document CHEMBL5108000, “Design and synthesis of novel indole and indazole-piperazine pyrimidine derivatives with anti-inflammatory and neuroprotective activities for ischemic stroke treatment” (Eur J Med Chem, 2022).

What all share (type): functional
Details in all cases: read-out: Activity

The test system of experiment [1] is BV-2. Nature of the experiment: Neuroprotective activity against in OGD/R-induced mouse BV-2 cell injury assessed as cell viability at 0.1 uM measured after 24 hrs by MTT assay. (In general: Tetrazolium assays rely on reduction of a dye to a coloured formazan, in cell work by metabolically active cells.)
The test system of experiment [2] is BV-2. As to the kind of experiment: Neuroprotective activity against in OGD/R-induced mouse BV-2 cell injury assessed as cell viability at 1 uM measured after 24 hrs by MTT assay.
Experiment [3] deals with BV-2. Nature of the experiment: Neuroprotective activity against in OGD/R-induced mouse BV-2 cell injury assessed as cell viability at 10 uM measured after 24 hrs by MTT assay.

For the compound `COc1ccc(Cn2cc(C(=O)N3CCN(c4ncccn4)CC3)c3ccccc32)cc1`, the viability at 0.1 µM with BV-2 [1] amounted to 62.9%. Besides, in the experiment with BV-2 [2], the viability at 1 µM was 72.1%. Further, the viability at 10 µM in the experiment on BV-2 [3] came to 74.4%.
For `O=C(c1nn(Cc2ccc(Cl)cc2Cl)c2ccccc12)N1CCN(c2ncccn2)CC1`, in the experiment with BV-2 [1], the viability at 0.1 µM was determined as 64.4%. For the same compound, the viability at 1 µM in the experiment with BV-2 [2] turned out to be 68.6%. Moreover, in the experiment on BV-2 [3], the viability at 10 µM turned out to be 72%.
Consider `COc1cccc(Cn2nc(C(=O)N3CCN(c4ncccn4)CC3)c3ccccc32)c1`, for which the viability at 0.1 µM in the experiment with BV-2 [1] was found to be 66.8%. In addition, the viability at 1 µM with BV-2 [2] was 73.8%. Besides, the viability at 10 µM with BV-2 [3] was 75%.
As to `COc1ccc(Cn2cc(C(=O)N3CCN(c4ncccn4)CC3)c3cc(Cl)ccc32)cc1`, the viability at 0.1 µM with BV-2 [1] came to 62.3%. In addition, in the experiment with BV-2 [2], the viability at 1 µM worked out at 68.7%. Further, the viability at 10 µM with BV-2 [3] was determined as 69.7%.
Consider `CC1=NN(c2ccccc2)C(=O)C1` [EDARAVONE], for which the viability at 0.1 µM with BV-2 [1] is 69.7%. Moreover, the viability at 1 µM in the experiment with BV-2 [2] was found to be 76.8%. In the experiment on BV-2 [3], the viability at 10 µM was found to be 83%.
For the compound `O=C(c1cc2cc(Cl)ccc2n1Cc1ccccc1F)N1CCN(c2ncccn2)CC1`, the viability at 0.1 µM in the experiment with BV-2 [1] was 65%. The viability at 1 µM in the experiment with BV-2 [2] is 68.9%. For the same compound, the viability at 10 µM in the experiment on BV-2 [3] stood at 72.3%.
On to `O=C(c1cc2cc(Cl)ccc2n1Cc1cccc(F)c1)N1CCN(c2ncccn2)CC1`, for which the viability at 0.1 µM with BV-2 [1] is 63.2%. For the same compound, the viability at 1 µM with BV-2 [2] was found to be 67%. In addition, in the experiment with BV-2 [3], the viability at 10 µM was found to be 67.8%.
As for `O=C(c1cc2cc(Cl)ccc2n1Cc1ccc(F)cc1)N1CCN(c2ncccn2)CC1`, the viability at 0.1 µM in the experiment with BV-2 [1] is 60.6%. In the experiment on BV-2 [2], the viability at 1 µM worked out at 70.1%. Further, in the experiment on BV-2 [3], the viability at 10 µM was 72.5%.
For `COc1ccc(Cn2c(C(=O)N3CCN(c4ncccn4)CC3)cc3cc(OC)ccc32)cc1`, in that order: 63.2%, 68.9% and 71.3%.
In the case of `COc1ccccc1Cn1c(C(=O)N2CCN(c3ncccn3)CC2)cc2cc(Cl)ccc21`, the viability at 0.1 µM in the experiment with BV-2 [1] stood at 65.4%. The viability at 1 µM with BV-2 [2] came to 70.2%. The viability at 10 µM in the experiment on BV-2 [3] worked out at 74.6%.
`O=C(c1cc2ccccc2n1Cc1ccc(Cl)cc1Cl)N1CCN(c2ncccn2)CC1`: in the experiment with BV-2 [1], the viability at 0.1 µM was 63.6%. Besides, in the experiment with BV-2 [2], the viability at 1 µM was found to be 67.2%. The viability at 10 µM in the experiment with BV-2 [3] was found to be 68.4%.
With `O=C(c1cn(Cc2cccc(F)c2)c2ccccc12)N1CCN(c2ncccn2)CC1`, the viability at 0.1 µM with BV-2 [1] worked out at 65.3%. In addition, the viability at 1 µM in the experiment with BV-2 [2] was found to be 71.9%. Moreover, in the experiment with BV-2 [3], the viability at 10 µM came to 79.2%.
As to `O=C(c1cn(Cc2ccc(F)cc2)c2ccccc12)N1CCN(c2ncccn2)CC1`, the viability at 0.1 µM with BV-2 [1] worked out at 64.7%. The viability at 1 µM with BV-2 [2] worked out at 71.7%. In the experiment with BV-2 [3], the viability at 10 µM came out at 80.2%.
In the case of `COc1ccc(Cn2nc(C(=O)N3CCN(c4ncccn4)CC3)c3ccccc32)cc1`, the viability at 0.1 µM with BV-2 [1] was determined as 65.1%. Moreover, in the experiment with BV-2 [2], the viability at 1 µM is 71.9%. For the same compound, in the experiment with BV-2 [3], the viability at 10 µM was 78.6%.
In the case of `COc1cccc(Cn2cc(C(=O)N3CCN(c4ncccn4)CC3)c3ccccc32)c1`, the viability at 0.1 µM with BV-2 [1] was 63.7%. The viability at 1 µM in the experiment with BV-2 [2] is 72.5%. Besides, the viability at 10 µM in the experiment on BV-2 [3] is 75.8%.
Turning to `COc1ccc2c(c1)cc(C(=O)N1CCN(c3ncccn3)CC1)n2Cc1ccc(F)cc1`, the viability at 0.1 µM in the experiment on BV-2 [1] came out at 64.9%. Further, in the experiment with BV-2 [2], the viability at 1 µM is 66.2%. The viability at 10 µM in the experiment with BV-2 [3] stood at 69.9%.
As to `O=C(c1cc2cc(Cl)ccc2n1Cc1ccc(C(F)(F)F)cc1)N1CCN(c2ncccn2)CC1`, the viability at 0.1 µM in the experiment on BV-2 [1] came out at 60.8%. For the same compound, the viability at 1 µM in the experiment on BV-2 [2] amounted to 66%. In addition, the viability at 10 µM in the experiment on BV-2 [3] came to 69.2%.
With `COc1cccc(Cn2c(C(=O)N3CCN(c4ncccn4)CC3)cc3ccccc32)c1`, the viability at 0.1 µM in the experiment on BV-2 [1] amounted to 67.2%. Moreover, in the experiment with BV-2 [2], the viability at 1 µM turned out to be 72.6%. Further, in the experiment on BV-2 [3], the viability at 10 µM was 75.6%.
For `COc1ccc(Cn2c(C(=O)N3CCN(c4ncccn4)CC3)cc3ccccc32)cc1`, in that order: 63%, 69.9% and 78.9%.
